Test results published in article PMC7968666, “The pharmacokinetics and drug-drug interactions of ivermectin in Aedes aegypti mosquitoes” (PLoS Pathogens, 2021).
“And” between values parts separate entries of the source, which are not always exact repeats. Equal values may be shown once. “Also recorded” adds a separate entry of the source.

Key:
Aedes aegypti mosquitoes = test: Drug effect on mosquito fecundity (eggs laid after 96 h); format: in vivo
Experimental: The mixtures were rotated at room temperature for 30 min to ensure a uniform drug distribution (Rotator Genie, Scientific Industries, Bohemia, USA). […] Twelve hours later, the tap water was also removed to starve the mosquitoes. […] The mosquitoes were then feeding from blood through the netting and the Parafilm membrane. […] The photoperiod of the climate chamber and the insectary were synchronised. […] The engorged mosquitoes were either directly frozen at -20°C or returned to the climate chamber for certain time periods to assess the PK. […] Blood feeding was done as described above. […] In contrast to the PK experiments, the mosquitoes had unlimited access to water because a moistened oviposition substrate was inserted into the paper cup. Fecundity was defined as the total number of eggs laid after 96 h. […] The filter paper served as the oviposition substrate. The cotton wool was soaked with fresh water and covered by a new filter paper after 48, 72, and 96 h post-treatment. After the assay, the eggs were left to mature for 24 h in the insectary. […] R Foundation for Statistical Computing, http://www.R-project.org, Vienna, Austria). Normality was assessed using the Shapiro-Wilk test. For normally distributed data (mortality, fecundity), group differences were assessed with one-way ANOVA testing, and, where applicable, followed up with Tukey's test. Group differences in fertility (not normally distributed) were evaluated with Kruskal-Wallis one-way analysis of variance, and Wilcoxon rank sum testing as post-hoc.

[1] = Pharmacokinetic and drug-drug interaction studies in blood-fed mosquitoes (concentration-time courses, population PK modelling); settings: for Ivermectin concentration in single mosquito: IVM (0.1 µg/ml) in human blood, Batch 4, individual mosquitoes, listed as IVM
[2] = 4 days, IVM 0.1, KCZ 5, RIF 10, RTV 10, PBO 10 μg/ml in blood, 50 mosquitoes
[3] = ivermectin 0.1 μg/ml plus ritonavir 10 μg/ml in blood
[4] = non-parametric bootstrap analysis (n = 1’000)

Structure (SMILES): CCC(C)C1OC2(CCC1C)CC1CC(CC=C(C)C(OC3CC(OC)C(OC4CC(OC)C(O)C(C)O4)C(C)O3)C(C)C=CC=C3COC4C(O)C(C)=CC(C(=O)O1)C34O)O2 (centres unmarked) [ivermectin]
- Mosquito fecundity, Batch 1, mg eggs (4 days) (Aedes aegypti mosquitoes; [2]): 18.22 mg eggs
- Mosquito fecundity, Batch 2, mg eggs (4 days) (Aedes aegypti mosquitoes; [2]): 8.65 mg eggs
- Mosquito fecundity, Batch 3, mg eggs (4 days) (Aedes aegypti mosquitoes; [2]): 16.69 mg eggs
- Effect on number of mosquito eggs (fecundity) compared to blank blood (Aedes aegypti mosquitoes; four days, IVM 0.1, RTV 10, PBO 10 μg/ml in blood): reduced the number of mosquito eggs
- zero-order elimination rate ([1]; 0.1 μg/ml ivermectin in blood, pharmacometric modelling): 5.5 pg/h
- Course / extent of elimination from the mosquitoes ([1]; IVM 0.1, KCZ 5, RIF 10, PBO 10 μg/ml in blood, up to 72 h): after 72 h only traces of ivermectin were still detectable
- Type of elimination kinetics in the mosquito ([1]; IVM 0.1, KCZ 5, RIF 10, RTV 10, PBO 10 μg/ml in blood): zero-order elimination; also recorded: zero-order kinetics
- Ivermectin concentration in single mosquito ([1]; 0 h post feeding): 0.079 ng/mg msq (2×) and 0.077 ng/mg msq (2×) and 0.075 ng/mg msq and 0.084 ng/mg msq (2×) and 0.087 ng/mg msq and 0.089 ng/mg msq (2×) and 0.085 ng/mg msq and 0.088 ng/mg msq and 0.078 ng/mg msq (2×) and 0.083 ng/mg msq (4×) and 0.062 ng/mg msq and 0.074 ng/mg msq
- Ivermectin concentration in single mosquito ([1]; 6 h post feeding): 0.100 ng/mg msq (2×) and 0.086 ng/mg msq (2×) and 0.098 ng/mg msq and 0.092 ng/mg msq (2×) and 0.079 ng/mg msq and 0.085 ng/mg msq and 0.104 ng/mg msq and 0.082 ng/mg msq and 0.094 ng/mg msq and 0.083 ng/mg msq and 0.103 ng/mg msq (2×) and 0.160 ng/mg msq and 0.148 ng/mg msq and 0.096 ng/mg msq and 0.111 ng/mg msq and 0.113 ng/mg msq
- Ivermectin concentration in single mosquito ([1]; 12 h post feeding): 0.073 ng/mg msq and 0.065 ng/mg msq and 0.093 ng/mg msq (2×) and 0.095 ng/mg msq (2×) and 0.090 ng/mg msq (3×) and 0.085 ng/mg msq (2×) and 0.063 ng/mg msq and 0.087 ng/mg msq and 0.077 ng/mg msq and 0.104 ng/mg msq and 0.116 ng/mg msq and 0.103 ng/mg msq and 0.086 ng/mg msq and 0.098 ng/mg msq and 0.124 ng/mg msq
- Ivermectin concentration in single mosquito ([1]; 24 h post feeding): 0.073 ng/mg msq (2×) and 0.070 ng/mg msq (2×) and 0.074 ng/mg msq and 0.068 ng/mg msq and 0.090 ng/mg msq and 0.064 ng/mg msq (3×) and 0.067 ng/mg msq and 0.078 ng/mg msq and 0.055 ng/mg msq and 0.062 ng/mg msq and 0.058 ng/mg msq and 0.072 ng/mg msq and 0.056 ng/mg msq (2×) and 0.084 ng/mg msq and 0.057 ng/mg msq
- Ivermectin concentration in single mosquito ([1]; 36 h post feeding): 0.068 ng/mg msq (3×) and 0.044 ng/mg msq and 0.052 ng/mg msq and 0.090 ng/mg msq and 0.039 ng/mg msq and 0.038 ng/mg msq and 0.056 ng/mg msq and 0.053 ng/mg msq and 0.071 ng/mg msq and 0.060 ng/mg msq (2×) and 0.050 ng/mg msq and 0.036 ng/mg msq and 0.051 ng/mg msq and 0.062 ng/mg msq and 0.043 ng/mg msq and 0.037 ng/mg msq and 0.073 ng/mg msq
- IOV dose (inter-occasion variability), estimate ([1]; final population PK model): 0.11
- Inter-individual variability (ω) of dose, estimate ([1]; final population PK model): 0.075
- Inter-individual variability (ω) of kel, estimate ([1]; final population PK model): 0.25
- kel (zero-order elimination rate), estimate ([1]; final population PK model, 0.1 μg/ml ivermectin in blood): 0.0055 ng/h
- dose (amount absorbed from the blood meal), estimate ([1]; final population PK model, 0.1 μg/ml ivermectin in blood, median mosquito weight 3.4 mg): 0.28 ng
- Amount of ivermectin imbibed per feeding, mean ± SD ([1]; human blood spiked with 0.1 μg/ml ivermectin, four batches): 0.36 ± 0.06 ng
- Effect of ritonavir on the elimination rate of ivermectin [1, 3]: not affected
- Increase of ivermectin exposure (AUC) compared to ivermectin alone [1, 3]: 29%
- IOV dose, bootstrap median [1, 4]: 0.11
- Inter-individual variability (ω) of dose, bootstrap median [1, 4]: 0.075
- Inter-individual variability (ω) of kel, bootstrap median [1, 4]: 0.25
- Tlag, bootstrap median [1, 4]: 18.5 h
- dose, bootstrap median [1, 4]: 0.28 ng
- Tlag_add_rit, bootstrap median ([1]; non-parametric bootstrap analysis (n = 1’000), ritonavir co-treatment): 11.4 h
